The results in this text go back to patent US7582660B2, “2-thio-substituted imidazole derivatives and their use in pharmaceutics” (c-a-i-r biosciences GmbH, priority 2002, dated 2009).

Assay [1] concerns IL-1β. The assay is described as follows: In vitro test with human whole blood, LPS-stimulated IL-1β release (ELISA). It is filed as cell-based. As to conditions: read-out: K50 (μM) Whole blood IL-1β. How it is done:
(§1) They may be administered in one individual dose or in a plurality of doses. The activity spectrum of the compounds as inhibitors of cytokine release was examined using the test systems below, as described by C. Donat and S. Laufer in Arch. Pharm. Pharm. […] 1, 1-40. 2000.
(§2) In Vitro Test with Human Whole Blood
(§3) The reaction is stopped by placing the samples on ice, adding DPBS buffer and then centrifuging at 1000 g for 15 min. The amount of IL-1β and TNFα in the plasma supernatant is then determined by ELISA.

Assay [2] deals with IL-1β. The assay is described as follows: In vitro test with PBMCs, LPS-stimulated IL-1β release (ELISA). It counts as cell-based. The note with it: human PBMCs, LPS 4 hours, read-out: IC50 (μM) PBMCA IL-1β. Background: An ELISA detects its analyte on a solid surface through an enzyme-linked reagent.
Assay [3] relates to TNF-α. The assay is described as follows: In vitro test with PBMCs, LPS-stimulated TNFα release (ELISA). It counts as cell-based. As to conditions: human PBMCs, LPS 4 hours, read-out: IC50 (μM) PBMCA TNF-α.
For a further assay, the target named is p 38 (Homo sapiens, UniProt Q16539). Description: Kinase assay (activated p38a, ATF2 substrate, ELISA readout). It is filed as biochemical. As to conditions: ATF2, 100 μM ATP. How it is done: The reaction is stopped by placing the samples on ice, adding DPBS buffer and then centrifuging at 15 880 g for 12 min. The amount of IL-1β and TNFα in the plasma supernatant is then determined by ELISA. 2) Kinase Assay • At 37° C., microtiter plates were coated for one hour with 50 μl of ATF2 solution (20 μg/ml). The plates were washed three times with water, and 50 μl of kinase mixture (50 mM tris-HCl, 10 mM MgCl2, 10 mM β-glycerol phosphate, 10 μg/ml of BSA, 1 mM DTT, 100 μM ATP, 100 μM Na3VO4, 10 ng of activated p38a) with or without inhibitor were added into the wells, and the plates were incubated at 37° C. for 1 hour. The plates were washed three times and then incubated with phosphorus-ATF-2 antibody for one hour. The plates were once more washed three times, and goat-antirabbit IgG labeled with alkaline phosphatase was added at 37° C. for one hour (to fix antibody-phosphorylated protein/substrate complex). The plates were washed three times, and the alkaline phosphatase/substrate solution (3 mM 4-NPP, 50 mM NaHCO3, 50 mM MgCl2, 100 μl/well) was added at 37° C. for 1.5 hours. […] The IC50 values were calculated.
Sequence of p 38 (Q16539 whole entry): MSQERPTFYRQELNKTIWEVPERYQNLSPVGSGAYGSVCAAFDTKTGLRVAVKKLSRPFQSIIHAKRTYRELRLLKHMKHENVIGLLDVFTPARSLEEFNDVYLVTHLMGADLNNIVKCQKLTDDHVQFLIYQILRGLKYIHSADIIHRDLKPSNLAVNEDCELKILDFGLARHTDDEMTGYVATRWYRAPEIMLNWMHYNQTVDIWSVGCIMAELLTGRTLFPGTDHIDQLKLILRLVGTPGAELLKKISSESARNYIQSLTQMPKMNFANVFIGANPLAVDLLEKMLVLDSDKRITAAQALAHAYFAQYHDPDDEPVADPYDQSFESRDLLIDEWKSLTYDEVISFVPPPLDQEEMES

Assay [4] deals with TNF-α. Description: In vitro test with human whole blood, LPS-stimulated TNFα release (ELISA). It counts as cell-based. The note with it: 1 μg/ml LPS 4 hours, read-out: K50 (μM) Whole blood TNF-α. How it is done:
as §1, §2, §3

Setting [5] is: human whole blood, 1 μg/ml LPS 4 hours.

For the molecule `CSc1nc(-c2ccc(F)cc2)c(-c2ccnc(NC(C)c3ccccc3)c2)[nH]1` (racemic) [Compound 25m, (RS)-{4-[5-(4-Fluorophenyl)-2-methylsulfanyl-3H-imidazol-4-yl]pyridin-2-yl}-(1-phenylethyl)amine], in the assay with IL-1β [1] (Homo sapiens, 4 h), the IC50 worked out at 0.99 µM.

With `CC(Nc1cc(-c2[nH]c(SCc3ccccc3)nc2-c2ccc(F)cc2)ccn1)c1ccccc1` (racemic) [Compound 26d, (RS)-{4-[2-Benzylsulfanyl-S-(4-fluorophenyl)-3H-imidazol-4-yl]pyridin-2-yl}-(1-phenylethyl)amine], the IC50 in the assay with IL-1β [2] (PBMC) was 0.045 µM; in the assay with TNF-α [3] (PBMC) it was 2.7 µM; against p 38, 0.38 µM.

Turning to `CC(Nc1cc(-c2[nH]c(SCc3ccc([S+](C)[O-])cc3)nc2-c2ccc(F)cc2)ccn1)c1ccccc1` (racemic) [Compound 27d, (RS)-{4-[5-(4-Fluorophenyl)-2-(4-methanesulfinylbenzylsulfanyl)-3H-imidazol-4-yl]pyridin-2-yl}-(1-phenylethyl)amine], the IC50 with IL-1β [2] (PBMC) amounted to 0.04 µM; in the assay with TNF-α [3] (PBMC), 0.91 µM; on p 38, 0.27 µM; in the assay on TNF-α [4], 10 µM; in the assay with IL-1β [1] (setting [5]) it was 15.7 µM.

For `CSc1nc(-c2ccc(F)cc2)c(-c2ccnc(Cl)c2)[nH]1` [Compound 25a, 2-Chloro-4-[5-(4-fluorophenyl)-2-methylsulfanyl-3H-imidazol-4-yl]pyridine], the IC50 in the assay with IL-1β [2] (PBMC) turned out to be 0.35 µM; in the assay on TNF-α [3] (PBMC) it was 2.2 µM.

Consider `CSc1nc(-c2ccc(F)cc2)c(-c2ccnc(F)c2)[nH]1` [Compound 25b, 2-Fluoro-4-[5-(4-fluorophenyl)-2-methylsulfanyl-3H-imidazol-4-yl]pyridine], for which the IC50 in the assay with IL-1β [2] (PBMC) stood at 0.3 µM; in the assay with TNF-α [3] (PBMC) it was 2.8 µM; against p 38 it was 3.8 µM.

Turning to `CSc1nc(-c2ccc(F)cc2)c(-c2ccnc(OC(C)C)c2)[nH]1` [Compound 25c, 4-[5-(4-Fluorophenyl)-2-methylsulfanyl-3H-imidazol-4-yl]-2-isopropoxypyridin], the IC50 in the assay on IL-1β [2] (PBMC) came out at 2.7 µM; in the assay with TNF-α [3] (PBMC), 4.6 µM; against p 38, 8.7 µM; with TNF-α [4] it was 7.2 µM; with IL-1β [1] (setting [5]), 2.2 µM.

Take `COc1cc(-c2[nH]c(SC)nc2-c2ccc(F)cc2)ccn1` [Compound 25d, 4-[5-(4-Fluorophenyl)-2-methylsulfanyl-3H-imidazol-4-yl]-2-methoxypyridine]: the values for the IC50 in the assay with IL-1β [2] (PBMC) and in the assay with TNF-α [3] (PBMC) were 0.15 µM and 1.9 µM, respectively.

For the molecule `CSc1nc(-c2ccc(F)cc2)c(-c2cc[nH]c(=O)c2)[nH]1` [Compound 25e, 4-[5-(4-Fluorophenyl)-2-methylsulfanyl-3H-imidazol-4-yl]-1H-pyridin-2-one], the values for the IC50 in the assay with IL-1β [2] (PBMC) and with TNF-α [3] (PBMC) were 0.5 µM and 3.1 µM, respectively.

For the molecule `CSc1nc(-c2ccc(F)cc2)c(-c2ccnc(NCc3ccccc3)c2)[nH]1` [Compound 25f, Benzyl{4-[S-(4-fluorophenyl)-2-methylsulfanyl-3H-imidazol-4-yl]pyridin-2-yl}-amine], the IC50 with IL-1β [2] was found to be 0.108 µM; with TNF-α [3] it was 0.63 µM; at p 38, 0.65 µM.

`COc1ccc(CNc2cc(-c3[nH]c(SC)nc3-c3ccc(F)cc3)ccn2)cc1` [Compound 25g, {4-[5-(4-Fluorophenyl)-2-methylsulfanyl-3H-imidazol-4-yl]pyridin-2-yl}-(4-methoxybenzyl)amine]: the figures for the IC50 with IL-1β [2] (PBMC), in the assay with TNF-α [3] (PBMC) and against p 38 were 0.056 µM, 0.64 µM and 0.79 µM, respectively.

As for `CSc1nc(-c2ccc(F)cc2)c(-c2ccnc(NCc3ccc(C)cc3)c2)[nH]1` [Compound 25h, {4-[5-(4-Fluorophenyl)-2-methylsulfanyl-3H-imidazol-4-yl]pyridin-2-yl}-(4-methylbenzyl)amine], the IC50 in the assay on IL-1β [2] (PBMC) is 0.085 µM; with TNF-α [3] (PBMC), 0.67 µM; against p 38 it was 0.83 µM; in the assay with TNF-α [4], 17.3 µM; with IL-1β [1] (setting [5]) it was 22.3 µM.

Regarding `CSc1nc(-c2ccc(F)cc2)c(-c2ccnc(NCc3ccc(Cl)cc3)c2)[nH]1` [Compound 25i, (4-Chlorobenzyl)-{4-[5-(4-fluorophenyl)-2-methylsulfanyl-3H-imidazol-4-yl]-pyridin-2-yl}amine], the IC50 in the assay on IL-1β [2] (PBMC) came to 0.15 µM; with TNF-α [3] (PBMC), 0.5 µM; against p 38, 0.95 µM; in the assay on TNF-α [4], 14.8 µM; in the assay on IL-1β [1] (setting [5]) it was 13.3 µM.

Turning to `CSc1nc(-c2ccc(F)cc2)c(-c2ccnc(NCc3ccc(Cl)c(Cl)c3)c2)[nH]1` [Compound 25j, (3,4-Dichlorobenzyl)-{4-[5-(4-fluorophenyl)-2-methylsulfanyl-3H-imidazol4-yl]-pyridin-2-yl}amine], the IC50 in the assay on IL-1β [2] (PBMC) is 0.23 µM; in the assay on TNF-α [3] (PBMC), 0.72 µM; against p 38 it was 0.7 µM.

`CSc1nc(-c2ccc(F)cc2)c(-c2ccnc(Nc3ccccc3)c2)[nH]1` [Compound 25k, {4-[5-(4-Fluorophenyl)-2-methylsulfanyl-3H-imidazol-4-yl]pyridin-2-yl}-phenylamine]: the IC50 in the assay on IL-1β [2] (PBMC) stood at 0.03 µM; with TNF-α [3] (PBMC) it was 0.34 µM; against p 38, 0.13 µM.

With `CSc1nc(-c2ccc(F)cc2)c(-c2ccnc(NCCc3ccccc3)c2)[nH]1` [Compound 25l, {4-[5-(4-Fluorophenyl)-2-methylsulfanyl-3H-imidazol4-yl]pyridin-2-yl}-phenethylamine], the IC50 turned out to be 0.031 µM in the assay on IL-1β [2] (PBMC); 0.35 µM in the assay on TNF-α [3] (PBMC); 0.24 µM on p 38; 14.9 µM in the assay on TNF-α [4]; 17.1 µM in the assay with IL-1β [1] (setting [5]).

On to `Fc1ccc(-c2nc(SCc3ccccc3)[nH]c2-c2ccnc(Cl)c2)cc1` [Compound 26a, 4-[2-Benzylsulfanyl-5-(4-fluorophenyl)-3H-imidazol-4-yl]-2-chloropyridine], for which the IC50 is 1.8 µM in the assay with IL-1β [2] (PBMC) and 60 µM in the assay on TNF-α [3] (PBMC).

Turning to `Fc1ccc(-c2nc(SCc3ccccc3)[nH]c2-c2ccnc(F)c2)cc1` [Compound 26b, 4-[2-Benzylsulfanyl-5-(4-fluorophenyl)-3H-imidazol-4-yl]-2-fluoropyridine], the IC50 came to 2.9 µM in the assay with IL-1β [2] (PBMC), 40.5 µM in the assay on TNF-α [3] (PBMC) and 4.2 µM against p 38.

On to `Fc1ccc(-c2nc(SCc3ccccc3)[nH]c2-c2ccnc(NCc3ccccc3)c2)cc1` [Compound 26c, Benzyl-{4-[2-benzylsulfanyl-5-(4-fluorophenyl)-3H-imidazol-4-yl]pyridin-2-yl}-amine], for which the results for the IC50 with IL-1β [2] (PBMC), in the assay with TNF-α [3] (PBMC) and on p 38 were 0.2 µM, 3.2 µM and 1.42 µM, respectively.

Take `COc1ccc(CNc2cc(-c3[nH]c(SCc4ccccc4)nc3-c3ccc(F)cc3)ccn2)cc1` [Compound 26e, {4-[2-Benzylsulfanyl-5-(4-fluorophenyl)-3H-imidazol-4-yl]pyridin-2-yl}-(4-methoxybenzyl)amine]: the IC50 came to 0.18 µM in the assay on IL-1β [2] (PBMC) and 21 µM with TNF-α [3] (PBMC).

On to `C[S+]([O-])c1ccc(CSc2nc(-c3ccc(F)cc3)c(-c3ccnc(Cl)c3)[nH]2)cc1` (centres unmarked) [Compound 27a, 2-Chloro-4-[5-(4-fluorophenyl)-2-(4-methanesulfinylbenzylsulfanyl)-3H-imidazol-4-yl]pyridine], for which the IC50 in the assay with IL-1β [2] (PBMC) is 2.1 µM; with TNF-α [3] (PBMC), 12 µM.

In the case of `C[S+]([O-])c1ccc(CSc2nc(-c3ccc(F)cc3)c(-c3ccnc(F)c3)[nH]2)cc1` (centres unmarked) [Compound 27b, 2-Fluoro-4-[5-(4-fluorophenyl)-2-(4-methanesulfinylbenzylsulfanyl)-3H-imidazol-4-yl]pyridine], the results for the IC50 with IL-1β [2] (PBMC), in the assay with TNF-α [3] (PBMC) and on p 38 were 2.45 µM, 6.9 µM and 9.3 µM, respectively.

For `C[S+]([O-])c1ccc(CSc2nc(-c3ccc(F)cc3)c(-c3ccnc(NCc4ccccc4)c3)[nH]2)cc1` (centres unmarked) [Compound 27c, Benzyl-{4-[5-(4-fluorophenyl)-2-(4-methanesulfinylbenzylsulfanyl)-3H-imidazol-4-yl]pyridin-2-yl}amine], the figures for the IC50 in the assay on IL-1β [2] (PBMC), with TNF-α [3] (PBMC) and at p 38 were 0.47 µM, 2 µM and 1.45 µM, respectively.
